Columns and labels:
[1] = tested on: human neuroblastoma SK-N-MC cells; test: Inhibition of ROS production induced by xanthine/xanthine oxidase (H2DCFDA probe, LDH-normalized); format: cell-based; details: XXO 10 μM-100 mU/ml, 3 h, at 10 μg/ml, inhibition observed at 10 and 20 μg/ml, read-out: maximum inhibition of ROS production relating to XXO
Procedure: The assay was performed on human neuroblastoma SK-N-MC cells in culture from the American Type Culture Collection (ATCC) (HTB-10), in all cases strict rules of sterility were followed and the manipulation was performed in class II biological safety cabinets following European standard EN 12469. The cells were maintained in Minimum Essential Medium Eagle (MEM) culture medium supplemented with 1 mM sodium pyruvate, 2 mM L-glutamine, 0.1 mM non-essential amino acids, 0.05 mg/ml gentamicin and 10% fetal bovine serum.
The inhibition by the NST0003 compound [(1S,3R,7S,8S,8aR)-1,2,3,7,8,8a-hexahydro-3,7-dimethyl-8-[2-[(2R,4R)-tetrahydro-4-hydroxy-6-oxo-2H-pyran-2-yl]ethyl-1-naphthalenyl propanoate] on the production of reactive oxygen species (ROS) in the SK-N-MC cells, was analyzed. […]
The cells were incubated (at 37° C. and 5% CO2) with these treatments for 3 h, after which time they were washed with HKRB buffer (20 mM HEPES, 103 mM NaCl, 4.77 mM KCl, 0.5 mM CaCl2, 1.2 mM MgCl2, 1.2 mM KH2PO4, 25 mM […], 15 mM glucose; at pH 7.3) after which the 2′,7′-dichlorodihydrofluorescein diacetate (H2DCFDA) probe was added at 30 μM diluted in HKRB buffer and it was incubated for another 2 hours in the same conditions. The reading of the plate was taken in a fluorometer at the conditions of 485 nm for excitation and 538 nm for emission. […]

[2] = tested on: zebrafish larvae; test: Inhibition of TBH-induced apoptosis in the brain of the zebrafish embryo (Acridine Orange); format: in vivo, zebrafish (Danio rerio); details: zebrafish larvae 96 hpf, TBH 0.45 mM, compound 1 μg/ml, 24 h
Procedure: To that end, an assay was performed on zebrafish larvae (96 hours post-fertilization). The fertilized eggs were obtained by a natural birth of adult zebrafish (AB strain) in the inventors' laboratory, carried out according to what is described in The Zebrafish Book [Westerfield, M. (1995) The Zebrafish Book. A Guide for the Laboratory Use of Zebrafish (Danio rerio). 3rd ed., University of Oregon Press, Eugene]. The eggs were collected in the 1st hour after spawning, washed and deposited in a clean Petri dish with embryo water (medium) (4.9 mM NaCl, 0.17 mM KCl, 0.33 mM CaCl.2H2O, 0.33 .mM MgSO4.7H2O, pH 7.2) prepared following the guidelines described in the book Zebrafish. Practical approach [Nusslein-Volhard, C and Dahm, R (2002) Zebrafish. Practical approach. Oxford: Oxford University Press].
The inhibition caused by the NST0003, NST0004 and NST0005 compounds on cell death caused by the tert-butyl hydroperoxide (TBH) compound, which is a pro-oxidizing compound which induces specific neurotoxicity in zebrafish larvae by means of the mechanism of apoptosis, was analyzed.
The larvae (at 96 hours post-fertilization [hpf]) were seeded in 96-well plates (3 larvae/well), performing a triplicate (3 wells) for experimental condition, thus obtaining an intra-assay triplicate. The larvae were treated in a total volume of embryo medium of 100 μl per well for the following conditions: (i) control (embryo medium); (ii), TBH [0.45 mM], which corresponds with the maximum tolerated dose (MTD), which induces neurotoxicity in the larvae but not mortality; and (iii) TBH [0.45 mM] and NST0003, NST0004 and NST0005, all at the concentration of 1 μg/ml. […]
Thus, the control larvae and the treated larvae were immersed in 1 μg/ml of AO in embryo water at 28.5° C. for 60 minutes. […] AO is a fluorescent compound which can be readily measured and quantified with a fluorometer. Therefore, the larvae were anesthetized with tricaine (3-aminobenzoic acid ethyl ester) and homogenized for their subsequent reading in a fluorescence plate reader (excitation: 488 nm; emission: 530 nm). […]

**Q.** With `CCC(=O)O[C@H]1C[C@@H](C)C=C2C=C[C@H](C)[C@H](CC[C@@H]3C[C@@H](O)CC(=O)O3)[C@H]21` [NST0003, (1S,3R,7S,8S,8aR)-1,2,3,7,8,8a-hexahydro-3,7-dimethyl-8-[2-[(2R,4R)-tetrahydro-4-hydroxy-6-oxo-2H-pyran-2-yl]ethyl-1-naphthalenyl propanoate] as the compound, how does the inhibition at 10 µg/mL [1] read?
**A.** Its inhibition at 10 µg/mL is 33%.

**Q.** And the “reduction of apoptosis induced by TBH” value [2]?
**A.** The value was 50.7±17.1%.

**Q.** For `CC(C)C(=O)O[C@H]1C[C@@H](C)C=C2C=C[C@H](C)[C@H](CC[C@@H]3C[C@@H](O)CC(=O)O3)[C@H]21` [NST0004], which “reduction of apoptosis induced by TBH” value [2] is on record?
**A.** Its value is 45.3±18.9%.

**Q.** With `C[C@H]1C=C2C=C[C@H](C)[C@H](CC[C@@H]3C[C@@H](O)CC(=O)O3)[C@H]2[C@@H](OC(=O)C(C)(C)C)C1` [NST0005] as the compound, how does the “reduction of apoptosis induced by TBH” value [2] read?
**A.** The value was 34.3±17.3%.
